Measurements published in patent US6767889B1, “Inhibition of angiogenesis by high molecular weight kininogen and peptide analogs thereof” (Temple University of the Commonwealth System of Higher …, priority 1998, dated 2004).
No end group written: not given here.

Tested on: human umbilical vein endothelial cells (HUVEC)

| Substance | IC50 [µM] |
| --- | --- |
| GHGHGHGKHKNKGKKN-OH [SEQ ID NO:8, Gly-His-Gly-His-Gly-His-Gly-Lys-His-Lys-Asn-Lys-Gly-Lys-Lys-Asn] | 8 |
| HKNKGKKNGKHNGWKT-OH [SEQ ID NO:9, His-Lys-Asn-Lys-Gly-Lys-Lys-Asn-Gly-Lys-His-Asn-Gly-Trp-Lys-Thr] | 14 |
